# Experimental data: patent US20070092577A1, “Dietary calcium for reducing the production of reactive oxygen species” (University of Tennessee Research Foundation, priority 2005, published 2007)
# How the values were obtained:
# 3T3-L1 adipocytes = assay: DNA synthesis / cell proliferation (CyQUANT); assay type: cell-based, murine; conditions: 48 hours
# Protocol: 3T3-L1 preadipocytes were incubated at a density of 8000 cells/cm^2 (10 cm^2 dish) and grown in Dulbecco's modified Eagle's medium (DMEM) containing 10% FBS and antibiotics (adipocyte medium) at 37° C. in 5% CO2 in air. Confluent preadipocytes were induced to differentiate with a standard differentiation medium consisting of DMEM-F 10 (1:1, vol/vol) medium supplemented with 1% FBS, 1 μM dexamethasone, IBMX (0.5 mM) and antibiotics (1% Penicillin-Streptomycin). Preadipocytes were maintained in this differentiation medium for 3 days and subsequently cultured in adipocyte medium. Cultures were re-fed every 2-3 days to allow 90% of cells to reach full differentiation before conducting chemical treatment. Chemicals were freshly diluted in adipocyte medium before treatment. Cells were washed with fresh adipocyte medium, re-fed with medium containing the different treatments, and incubated at 37° C. in 5% CO2 in air before analysis. Cell viability was measured via trypan blue exclusion. Cells were plated in DMEM with different treatment in duplicate in 96-well plates. After 48 h, a CyQUANT Cell Proliferation Kit (Molecular Probes, Eugene, Oreg.) was used following the manufacturer's protocol a microplate fluorometer (Packard Instrument Company, Inc., Downers Grove, Ill.) was used to measure CyQUANT fluorescence. Cell viability was determined by Trypan blue exclusion examination.
# IL-6 = IL-6 expression in differentiated 3T3-L1 adipocytes; assay type: cell-based, mouse; conditions: for effect on IL-6 expression: 10 nmol/L, 48 h, adipocytes cultured alone
# Protocol: 3T3-L1 pre-adipocytes were incubated at a density of 8000 cells/cm^2 (10 cm^2 dish) and grown in Dulbecco's modified Eagle's medium (DMEM) containing 10% FBS and antibiotics (adipocyte medium) at 37° C. in 5% CO2 in air. Confluent pre-adipocytes were induced to differentiate with a standard differentiation medium consisting of DMEM-F10 (1:1, vol/vol) medium supplemented with 1% fetal bovine serum (FBS), 1 μM dexamethasone, isobutylmethylxanthine (IBMX) (0.5 mM) and antibiotics (1% Penicillin-Streptomycin). Pre-adipocytes were maintained in this differentiation medium for 3 days and subsequently cultured in adipocyte medium. Cultures were re-fed every 2-3 days to allow 90% cells to reach fully differentiation before conducting chemical treatment.
# Cells were incubated in serum free medium overnight before chemical treatment. Chemicals were freshly diluted in adipocyte medium before treatment. […] Cell viability was measured via trypan blue exclusion.
# Adipocyte and muscle 18s, TNFα, IL-6, IL-8, IL-15 and adiponectin were quantitatively measured using a smart cycler real-time PCR system (Cepheid, Sunnyvale, Calif.) with a TaqMan 1000 Core Reagent Kit (Applied Biosystems, Branchburg, N.J.). The primers and probe sets were obtained from Applied Biosystems TaqMan® Assays-on-Demand™ Gene Expression primers and probe set collection and utilized according to manufacture's instructions. Pooled adipocyte total RNA was serial-diluted in the range of 1.5625-25 ng and used to establish a standard curve; and total RNA for the unknown samples were also diluted in this range. Reactions of quantitative RT-PCR for standards and unknown samples were also performed according to the instructions of Smart Cycler System (Cepheid, Sunnyvale, Calif.) and TaqMan Real Time PCR Core Kit (Applied Biosystems, Branchburg, N.J.). The mRNA quantitation for each sample was further normalized using the corresponding 18s quantitation.
# RAW 264 macrophages and 3T3-L1 preadipocytes (American Type Culture Collection) were incubated at a density of 8000 cells/cm2 (10 cm2 dish) and grown in Dulbecco's modified Eagle's medium (DMEM) containing 10% FBS and antibiotics (adipocyte medium) at 37° C. in 5% CO2 in air. […]
# Adipocyte and muscle 18s, CD14, TNFα, MIP, M-CSF, IL-6 and MCP-1 were quantitatively measured using a Smart Cycler Real Time PCR System (Cepheid, Sunnyvale, Calif.) with a TaqMan 1000 Core Reagent Kit (Applied Biosystems, Branchburg, N.J.). […] Reactions of quantitative RT-PCR for standards and unknown samples were also performed according to the instructions of Smart Cycler System (Cepheid, Sunnyvale, Calif.) and TaqMan Real Time PCR Core Kit (Applied Biosystems, Branchburg, N.J.). The mRNA quantitation for each sample was further normalized using the corresponding 18s quantitation.
structure (smiles),measurement,setting,value
"OO [H2O2, hydrogen peroxide]",increase of total DNA of cultured cells,"3T3-L1 adipocytes; H2O2 100 nmol/L, p<0.001",39%
same,increase of IL-6 expression,"IL-6; 100 nmol/L H2O2, 48 h, p<0.001",167%
"C=C1/C(=C\C=C2/CCC[C@]3(C)[C@@H]([C@H](C)CCCC(C)(C)O)CC[C@@H]23)C[C@@H](O)C[C@@H]1O [calcitriol, 1, 25-Dihydroxyvitamin D]",effect on glucose induced DNA synthesis,"3T3-L1 adipocytes; added to glucose 30 mmol/L, nifedipine 10 μmol/L",augmented
same,effect on IL-6 expression,IL-6,markedly stimulate
same,effect on IL-6 expression,"IL-6; listed as 1α, 25-(OH)2-D3",markedly increased
Cc1c(C)c2c(c(C)c1O)CC[C@@](C)(CCC[C@H](C)CCC[C@H](C)CCCC(C)C)O2 [α-tocopherol],effect on H2O2 induced DNA synthesis,"3T3-L1 adipocytes; with H2O2 100 nmol/L, α-tocopherol 1 μmol/L, nifedipine 10 μmol/L",completely blocked
same,effect on hydrogen peroxide increased IL-6 expression,"IL-6; 1 μmol/L α±tocopherol plus 100 nmol/L H2O2, 48 h, p=0.016",attenuated
